target: Signal transducer and activator of transcription 3 (Homo sapiens) (UniProt P40763); assay: STAT3 reporter inhibitors, potency, dose response, cell-based (AID 1399); details: human cell STAT3 reporter inhibition

Compound	IC50 [µM]
COc1ccc(C(=O)Nc2ccc3oc(Cc4ccc(Cl)cc4)nc3c2)cc1OC	6.74
CNC(=O)Oc1cccc(-c2cn3cc(Cl)ccc3n2)c1	1.78
Oc1ccc(-c2n[nH]c(=S)n2-c2ccc3c(c2)OCCO3)c(O)c1	5.37
COc1cc(OC)cc(C(=O)Nc2nnc(NC(=S)Nc3ccccc3)s2)c1	3.91
Cc1ccsc1/C=C1\CCc2ccccc2C1=O	5.04
CCN(CC)c1ccc(NC(=O)CN2C(=O)CSc3ncccc32)c(C)c1	3.82

From PubChem BioAssay AID1399 (The Scripps Research Institute Molecular Screening Center, 2008)
